Assay results from US7635696B2, “Isoxazoline-indole derivatives with an improved antipsychotic and anxiolytic activity” (Janssen Pharmaceutica N.V., priority 2004, dated 2009).

What was measured:
[1] = biological target: T1, human 5HT transporter (Homo sapiens, UniProt P31645); assay: Binding experiment for 5-HT transporter ([3H]Paroxetine); settings: transfected HEK cell membranes, [3H]Paroxetine
T1 construct: host or cells: HEK cells
Outline: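 Competition binding on membranes from HEK cells transfected with human 5HT transporter, using [3H]paroxetine (prepared at 5 nmol/L) in 50 mM Tris-HCl, 120 mM NaCl, 5 mM KCl, pH 7.4. Incubation 60 min at 25 °C; nonspecific binding with imipramine 10^−6 mol/L; filtration and scintillation counting give % specific binding curves.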

[2] = biological target: T2, Human 5HT1A receptor (Homo sapiens, UniProt P08908); assay: Binding experiment for 5-HT1A receptor ([3H]8OHDPAT); settings: transfected L929 cell membranes, [3H]8OHDPAT
T2 construct: expressed in transfected cells; host or cells: L929 cells (stably transfected)
T2 sequence (P08908 1-422): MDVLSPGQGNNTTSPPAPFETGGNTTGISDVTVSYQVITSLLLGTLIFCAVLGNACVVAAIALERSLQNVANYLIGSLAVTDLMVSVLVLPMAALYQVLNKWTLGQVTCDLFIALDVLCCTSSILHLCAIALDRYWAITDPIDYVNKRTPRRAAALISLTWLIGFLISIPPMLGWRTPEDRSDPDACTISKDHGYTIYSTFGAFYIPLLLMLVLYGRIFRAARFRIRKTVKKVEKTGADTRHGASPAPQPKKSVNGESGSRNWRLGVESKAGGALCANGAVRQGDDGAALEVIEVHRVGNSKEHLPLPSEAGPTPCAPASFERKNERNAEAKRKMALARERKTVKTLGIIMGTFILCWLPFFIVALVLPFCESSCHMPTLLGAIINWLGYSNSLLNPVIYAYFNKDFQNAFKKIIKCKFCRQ
Outline: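 Competition binding with 5 nmol/L [3H]8OHDPAT (diluted stock) on membranes from L929 cells stably transfected with human 5HT1A, in 50 mM Tris-HCl/4 mM CaCl2, pH 7.7, 30 min at 37 °C. Non-specific binding defined with 10^−6 mol/L spiroxatrine; bound radioactivity measured by filtration and scintillation counting.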

[3] = biological target: T3, Human Dopamine D2L receptor (Homo sapiens, UniProt P14416); assay: Binding experiment for dopamine D2 receptor ([3H]Spiperone); settings: D2L-transfected CHO cell membranes
T3 construct: expressed in transfected cells; host or cells: CHO cells
Outline: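 Membranes from CHO cells transfected with human D2L receptor incubated 30 min at 37 °C with [3H]spiperone (diluted to 2 nmol/L) in Tris-HCl buffer pH 7.7 with NaCl, CaCl2, MgCl2, KCl. Nonspecific binding with 10^−6 mol/L butaclamol; bound radioactivity by filtration and scintillation counting, competition curves from % specific binding.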

[4] = biological target: T4, Human Dopamine D3 receptor (Homo sapiens, UniProt P35462); assay: Binding experiment for dopamine D3 receptor ([125I]Iodosulpride); settings: transfected CHO cell membranes
T4 construct: expressed in transfected cells; host or cells: CHO cells
Description: The interaction of the compounds of Formula (I) with dopamine-receptors, h5HT-transporter and h5HT1A receptor was assessed in in vitro radioligand binding experiments. In general, a low concentration of a radioligand with a high binding affinity for a particular receptor or transporter is incubated with a sample of a tissue preparation enriched in a particular receptor or transporter or with a preparation of cells expressing cloned human receptors in a buffered medium. During the incubation, the radioligand binds to the receptor or transporter. When equilibrium of binding is reached, the receptor bound radioactivity is separated from the non-bound radioactivity, and the receptor- or transporter-bound activity is counted. The interaction of the test compounds with the receptor is assessed in competition binding experiments. Various concentrations of the test compound are added to the incubation mixture containing the receptor- or transporter preparation and the radioligand. The test compound in proportion to its binding affinity and its concentration inhibits binding of the radioligand.
Human Dopamine D3 receptor-transfected CHO cells were collected by scraping into ice-cold Tris-HCl buffer (50 mM, pH 7.4). The suspension was centrifuged (23 500×g, 10 min, 4° C.) and pellets stored at −70° C. until required. They were then thawed and briefly homogenised using an Ultra-Turrax T25 homogeniser prior to dilution to an appropriate protein concentration optimised for specific and non-specific binding. [^125I]Iodosulpride (Amersham, specific activity 2000 Ci/mmol) was diluted in Tris-HCl assay buffer containing NaCl, CaCl2, MgCl2, KCl and BSA (50, 120, 2, 1, 5 mM, 0.1% respectively, adjusted to pH 7.7 with HCl) at a concentration of 2 nmol/L. Prepared radioligand (20 μl) was incubated (60 min, RT) and with 20 μl of either the 10% DMSO control, Risperidone (10^−6 mol/L final concentration), or compound of interest, then with membrane preparations (80 μl). Overnight incubation followed after addition of WGA-coated PVT SPA beads (250 μl; Amersham) and membrane-bound counts measured in a Wallac Microbeta. % Specific bound and competition binding curves were calculated using S-Plus software (Insightful).

T3 sequence (P14416 whole entry): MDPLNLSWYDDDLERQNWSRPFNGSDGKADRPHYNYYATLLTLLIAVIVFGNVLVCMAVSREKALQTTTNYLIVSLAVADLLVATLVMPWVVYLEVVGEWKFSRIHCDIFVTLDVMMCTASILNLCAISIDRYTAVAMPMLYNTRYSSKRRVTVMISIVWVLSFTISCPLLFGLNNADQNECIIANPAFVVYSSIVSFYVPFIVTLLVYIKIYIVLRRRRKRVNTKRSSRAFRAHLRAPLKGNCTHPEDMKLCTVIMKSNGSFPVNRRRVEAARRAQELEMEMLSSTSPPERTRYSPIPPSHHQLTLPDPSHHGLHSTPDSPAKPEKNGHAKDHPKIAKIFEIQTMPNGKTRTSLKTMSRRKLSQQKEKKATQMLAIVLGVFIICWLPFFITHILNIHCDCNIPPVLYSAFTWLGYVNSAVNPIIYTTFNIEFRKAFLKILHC
T1 sequence (P31645 whole entry): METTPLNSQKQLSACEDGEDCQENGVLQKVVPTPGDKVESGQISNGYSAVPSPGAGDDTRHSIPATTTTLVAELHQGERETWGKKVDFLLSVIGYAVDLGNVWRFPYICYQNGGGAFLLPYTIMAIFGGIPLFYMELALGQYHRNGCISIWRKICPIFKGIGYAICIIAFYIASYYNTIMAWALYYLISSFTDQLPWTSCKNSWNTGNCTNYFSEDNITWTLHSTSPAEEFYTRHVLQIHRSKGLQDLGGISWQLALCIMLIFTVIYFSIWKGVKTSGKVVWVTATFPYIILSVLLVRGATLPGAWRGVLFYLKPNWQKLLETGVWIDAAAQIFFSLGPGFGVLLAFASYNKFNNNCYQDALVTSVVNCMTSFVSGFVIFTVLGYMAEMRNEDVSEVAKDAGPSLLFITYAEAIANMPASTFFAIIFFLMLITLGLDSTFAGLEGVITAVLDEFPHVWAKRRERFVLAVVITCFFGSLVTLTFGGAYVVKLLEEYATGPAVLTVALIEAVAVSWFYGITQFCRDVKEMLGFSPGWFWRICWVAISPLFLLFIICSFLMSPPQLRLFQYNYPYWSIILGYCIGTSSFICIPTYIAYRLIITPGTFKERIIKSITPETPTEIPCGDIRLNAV
T4 sequence (P35462 whole entry): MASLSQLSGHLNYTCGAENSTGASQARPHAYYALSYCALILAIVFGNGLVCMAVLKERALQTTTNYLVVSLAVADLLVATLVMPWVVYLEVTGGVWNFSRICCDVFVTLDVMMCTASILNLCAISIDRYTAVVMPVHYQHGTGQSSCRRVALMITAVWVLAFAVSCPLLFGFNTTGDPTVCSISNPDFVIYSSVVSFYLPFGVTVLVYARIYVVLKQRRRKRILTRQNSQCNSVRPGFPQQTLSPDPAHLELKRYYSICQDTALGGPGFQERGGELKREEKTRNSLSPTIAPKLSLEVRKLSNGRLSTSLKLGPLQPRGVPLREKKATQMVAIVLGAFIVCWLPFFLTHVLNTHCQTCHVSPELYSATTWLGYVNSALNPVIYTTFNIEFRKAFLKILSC

| Structure (SMILES) | pIC50 5HTT [1] | pIC50 5-HT1A [2] | pIC50 D2 [3] | pIC50 D3 [4] |
| --- | --- | --- | --- | --- |
| Fc1ccc2[nH]cc(C3=CCN(CC4ON=C5c6cc7c(cc6OCC54)OCCO7)CC3)c2c1 (single isomer, unassigned) [Compound 28] | 7.8 | 8.6 | 6.3 | 6.2 |
| Fc1ccc2[nH]cc(C3CCN(CC4ON=C5c6cc7c(cc6OCC54)OCCO7)CC3)c2c1 (single isomer, unassigned) [Compound 29] | 6.9 | 8.8 | 6.6 | 6.5 |
